Patent US11702422B2, “Imidazopyridazines as modulators of IL-17” (Janssen Pharmaceutica NV, priority 2020, dated 2023)

Assays:
[1] = biological target: IL-17A(FLAG-Tagged): IL-17RA(His-Tagged) (Homo sapiens, UniProt Q16552, K93Q); assay: IL-17A(FLAG-Tagged): IL-17RA(His-Tagged) Binding Disruption Eu-HTRF Assay; details: IL-17A/IL-17RA binding disruption, simple average if tested more than once
Procedure, shortened: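 IC50 comes from a one-site competition fit of the HTRF 665/620 nm ratio. Compound dilutions (2-fold, 22 points) were held 1 h rt with FLAG-tagged IL-17A dimer, then His-tagged IL-17RA plus Eu-cryptate anti-FLAG and D2 anti-His antibodies were added for 2 h rt.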

[2] = system: IL-17A-induced G-CSF production in human normal keratinocyte (NHK); assay: NHK Assay: IL-17A-induced G-CSF production in human normal keratinocytes; type: cell-based; details: adult normal human keratinocytes, IL-17A 5 ng/mL, 24 h, simple average if tested more than once
Procedure, shortened: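 Adult NHK, 3000-4000 cells/well; rhIL-17A + titrated cpd preincubated 1 h rt, then onto cells. Final: IL-17A 5 ng/mL, DMSO 0.2%, 5% FBS. 24 h, 37° C. G-CSF in supernatant by HTRF vs standard curve; IC50. Viability by CellTiter-Glo vs DMSO.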

Chain of UniProt Q16552 (Q16552 with tags, fused parts or gaps K93Q): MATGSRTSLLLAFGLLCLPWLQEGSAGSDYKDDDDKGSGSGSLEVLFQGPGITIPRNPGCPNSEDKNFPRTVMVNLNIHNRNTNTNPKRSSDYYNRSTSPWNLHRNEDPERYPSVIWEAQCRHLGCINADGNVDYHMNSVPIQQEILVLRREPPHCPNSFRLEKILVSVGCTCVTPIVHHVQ

Row | SMILES | IC50 [1] | IC50 [2] | IC50 ([2]; Homo sapiens, Keratinocyte)
1 | Cc1nonc1C(=O)N[C@H](c1cn2ncc(C(CC3CCC3)NC(=O)CC3CC(F)(F)C3)cc2n1)C1CCC(F)(F)CC1 (single isomer, unassigned) [Example 439, N—((S)-(7-((S*)-2-Cyclobutyl-1-(2-(3,3-difluorocyclobutyl)acetamido)ethyl)imidazo[1,2-b]pyridazin-2-yl)(4,4-difluorocyclohexyl)methyl)-4-methyl-1,2,5-oxadiazole-3-carboxamide] | 99 nM | 150 nM | 
2 | N#CC1([C@@H](NC(=O)C[C@H]2CC2(F)F)c2cnn3cc([C@@H](NC(=O)c4nonc4C4CC4)C4CCC(F)(F)CC4)nc3c2)CCC1 (single isomer, unassigned) [Example 448] | 35 nM |  | 12 nM
3 | O=C(CCC(F)(F)F)NC(c1cnn2cc([C@@H](NC(=O)c3nnsc3C3CC3)C3CCC(F)(F)CC3)nc2c1)C1CC1 (single isomer, unassigned) [Example 466, 5-Cyclopropyl-N—((S)-(7-((R*)-cyclopropyl(4,4,4-trifluorobutanamido)methyl)imidazo[1,2-b]pyridazin-2-yl)(4,4-difluorocyclohexyl)methyl)-1,2,3-thiadiazole-4-carboxamide] | 34 nM |  | 210 nM
4 | Cc1nsnc1C(=O)N[C@H](c1cn2ncc(C(NC(=O)CCC(F)(F)F)C3CC3)cc2n1)C1CCC(F)(F)CC1 (single isomer, unassigned) [Example 467, N—((S)-(7-((R*)-Cyclopropyl(4,4,4-trifluorobutanamido)methyl)imidazo[1,2-b]pyridazin-2-yl)(4,4-difluorocyclohexyl)methyl)-4-methyl-1,2,5-thiadiazole-3-carboxamide] | 58 nM |  | 360 nM
5 | Cc1nonc1C(=O)N[C@H](c1cn2ncc(C(NC(=O)CCC(F)(F)F)C3CCC3)cc2n1)C1CCC(F)(F)CC1 (single isomer, unassigned) [Example 491, N—((S)-(7-((R*)-Cyclobutyl(4,4,4-trifluorobutanamido)methyl)imidazo[1,2-b]pyridazin-2-yl)(4,4-difluorocyclohexyl)methyl)-4-methyl-1,2,5-oxadiazole-3-carboxamide] | 39 nM |  | 85 nM
6 | [2H]C([2H])([2H])n1nccc1C(=O)N[C@H](c1cn2ncc(C(NC(=O)CCC(F)(F)F)C3CCC3)cc2n1)C1CCC(F)(F)CC1 (single isomer, unassigned) [Example 492, N—((S)-(7-((R*)-Cyclobutyl(4,4,4-trifluorobutanamido)methyl)imidazo[1,2-b]pyridazin-2-yl)(4,4-difluorocyclohexyl)methyl)-1-(methyl-d3)-1H-pyrazole-5-carboxamide] | 65 nM |  | 95 nM
7 | Cc1nonc1C(=O)N[C@H](c1cn2ncc(C(NC(=O)CC3CC(F)(F)C3)C3CCC3)cc2n1)C1CCC(F)(F)CC1 (single isomer, unassigned) [Example 493, N—((S)-(7-((R*)-Cyclobutyl(2-(3,3-difluorocyclobutyl)acetamido)methyl)imidazo[1,2-b]pyridazin-2-yl)(4,4-difluorocyclohexyl)methyl)-4-methyl-1,2,5-oxadiazole-3-carboxamide] | 79 nM | 120 nM | 
8 | Cc1nonc1C(=O)N[C@H](c1cn2ncc(C(NC(=O)CC3CC(F)(F)C3)C3CCC3)cc2n1)C1CCC(F)(F)CC1 (single isomer, unassigned) [Example 494, N—((S)-(7-((S*)-Cyclobutyl(2-(3,3-difluorocyclobutyl)acetamido)methyl)imidazo[1,2-b]pyridazin-2-yl)(4,4-difluorocyclohexyl)methyl)-4-methyl-1,2,5-oxadiazole-3-carboxamide] | 1000 nM | > 20000 nM | 
9 | Cc1nonc1C(=O)N[C@H](c1cn2ncc(C(NC(=O)CCC(F)(F)F)C(C)C)cc2n1)C1CCC(F)(F)CC1 (single isomer, unassigned) [Example 504, N—((S)-(4,4-Difluorocyclohexyl)(7-((S*)-2-methyl-1-(4,4,4-trifluorobutanamido)propyl)imidazo[1,2-b]pyridazin-2-yl)methyl)-4-methyl-1,2,5-oxadiazole-3-carboxamide] | 46 nM | 93 nM | 

Continued, in another order:

Row | IC50 [1] | SMILES | IC50 [2] | IC50 ([2]; Homo sapiens, Keratinocyte)
10 | 92 nM | CC(C)n1nccc1C(=O)N[C@H](c1cn2ncc(C(CC3CCC3)NC(=O)CC3CC(F)(F)C3)cc2n1)C1CCC(F)(F)CC1 (single isomer, unassigned) [Example 440, N—((S)-(7-((R*)-2-Cyclobutyl-1-(2-(3,3-difluorocyclobutyl)acetamido)ethyl)imidazo[1,2-b]pyridazin-2-yl)(4,4-difluorocyclohexyl)methyl)-1-isopropyl-1H-pyrazole-5-carboxamide] | 59 nM | 
11 | 2300 nM | CC(C)n1nccc1C(=O)N[C@H](c1cn2ncc(C(NC(=O)CC3CC(F)(F)C3)C(C)(C)O)cc2n1)C1CCC(F)(F)CC1 (single isomer, unassigned) [Example 444, N—((S)-(7-((R*)-1-(2-(3,3-Difluorocyclobutyl)acetamido)-2-hydroxy-2-methylpropyl)imidazo[1,2-b]pyridazin-2-yl)(4,4-difluorocyclohexyl)methyl)-1-isopropyl-1H-pyrazole-5-carboxamide] | 11000 nM | 
12 | 5800 nM | Cc1nonc1C(=O)N[C@H](c1cn2ncc(C(NC(=O)CC3CC(F)(F)C3)C(C)(C)O)cc2n1)C1CCC(F)(F)CC1 (single isomer, unassigned) [Example 445, N—((S)-(7-((R*)-1-(2-(3,3-Difluorocyclobutyl)acetamido)-2-hydroxy-2-methylpropyl)imidazo[1,2-b]pyridazin-2-yl)(4,4-difluorocyclohexyl)methyl)-4-methyl-1,2,5-oxadiazole-3-carboxamide] | > 20000 nM | 
13 | 710 nM | Cc1nonc1C(=O)N[C@H](c1cn2ncc(C(CC#N)NC(=O)CC3CC(F)(F)C3)cc2n1)C1CCC(F)(F)CC1 (single isomer, unassigned) [Example 446, N—((S)-(7-((R*)-2-Cyano-1-(2-(3,3-difluorocyclobutyl)acetamido)ethyl)imidazo[1,2-b]pyridazin-2-yl)(4,4-difluorocyclohexyl)methyl)-4-methyl-1,2,5-oxadiazole-3-carboxamide] | 8800 nM | 
14 | 300 nM | CC(C)n1nccc1C(=O)N[C@H](c1cn2ncc(C(CC#N)NC(=O)CC3CC(F)(F)C3)cc2n1)C1CCC(F)(F)CC1 (single isomer, unassigned) [Example 447, N—((S)-(7-((R*)-2-Cyano-1-(2-(3,3-difluorocyclobutyl)acetamido)ethyl)imidazo[1,2-b]pyridazin-2-yl)(4,4-difluorocyclohexyl)methyl)-1-isopropyl-1H-pyrazole-5-carboxamide] | 1100 nM | 
15 | 150 nM | CC(C)n1nccc1C(=O)N[C@H](c1cn2ncc(C(NC(=O)CCC(F)(F)F)C3CCC3)cc2n1)C1CCC(F)(F)CC1 (single isomer, unassigned) [Example 490, N—((S)-(7-((R*)-Cyclobutyl(4,4,4-trifluorobutanamido)methyl)imidazo[1,2-b]pyridazin-2-yl)(4,4-difluorocyclohexyl)methyl)-1-isopropyl-1H-pyrazole-5-carboxamide] |  | 67 nM
16 | 40 nM | [2H]C([2H])([2H])C([2H])([2H])n1nccc1C(=O)N[C@H](c1cn2ncc(C(NC(=O)CC3CC(F)(F)C3)C3CCC3)cc2n1)C1CCC(F)(F)CC1 (single isomer, unassigned) [Example 495, N—((S)-(7-((R*)-Cyclobutyl(2-(3,3-difluorocyclobutyl)acetamido)methyl)imidazo[1,2-b]pyridazin-2-yl)(4,4-difluorocyclohexyl)methyl)-1-(ethyl-d5)-1H-pyrazole-5-carboxamide] | 300 nM | 
17 | 690 nM | [2H]C([2H])([2H])C([2H])([2H])n1nccc1C(=O)N[C@H](c1cn2ncc(C(NC(=O)CC3CC(F)(F)C3)C3CCC3)cc2n1)C1CCC(F)(F)CC1 (single isomer, unassigned) [Example 496, N—((S)-(7-((S*)-Cyclobutyl(2-(3,3-difluorocyclobutyl)acetamido)methyl)imidazo[1,2-b]pyridazin-2-yl)(4,4-difluorocyclohexyl)methyl)-1-(ethyl-d5)-1H-pyrazole-5-carboxamide] | 10000 nM | 
18 | 91 nM | [2H]C([2H])([2H])n1nccc1C(=O)N[C@H](c1cn2ncc(C(NC(=O)CC3CC(F)(F)C3)C3CCC3)cc2n1)C1CCC(F)(F)CC1 (single isomer, unassigned) [Example 497, N—((S)-(7-((R*)-Cyclobutyl(2-(3,3-difluorocyclobutyl)acetamido)methyl)imidazo[1,2-b]pyridazin-2-yl)(4,4-difluorocyclohexyl)methyl)-1-(methyl-d3)-1H-pyrazole-5-carboxamide] |  | 150 nM
19 | 180 nM | CC(C)(O)c1nonc1C(=O)N[C@H](c1cn2ncc(C(NC(=O)CC3CC(F)(F)C3)C3CCC3)cc2n1)C1CCC(F)(F)CC1 (single isomer, unassigned) [Example 499, N—((S)-(7-((R*)-Cyclobutyl(2-(3,3-difluorocyclobutyl)acetamido)methyl)imidazo[1,2-b]pyridazin-2-yl)(4,4-difluorocyclohexyl)methyl)-4-(2-hydroxypropan-2-yl)-1,2,5-oxadiazole-3-carboxamide] |  | 160 nM
